Test results from patent US12391686B2, “Compounds and uses thereof” (Foghorn Therapeutics Inc., priority 2019, dated 2025).

Assays:
[1] = system: synovial sarcoma cell lines (SYO1, Yamato, HS-SY-II, and ASKA); assay: Growth of synovial sarcoma cell lines (IncuCyte confluency, crystal violet, colony imaging), Example 3; assay type: cell-based; details: 1 μM or indicated doses, FIGS. 5, 6, 7
Method: (§1) Procedures: Cells were treated with DMSO or the BRD9 degrader, Compound 1, at indicated concentrations, and proliferation was monitored from day 7 to day 14 by measuring confluency over time using an IncuCyte live cell analysis system (FIG. 5). Growth medium and compounds were refreshed every 3-4 days.
(§2) Cells were seeded into 12-well plates and treated with DMSO, 1 μM BRD9 inhibitor, Compound 2 (also known as BI-7273, see Martin et al, J Med Chem. 59(10):4462-4475 (2016); see structure of Compound 2 below), or 1 μM BRD9 degrader, Compound 1.
(§3) The number of cells was optimized for each cell line. Growth medium and compounds were refreshed every 3-5 days. SYO1, Yamato, A549, 293T and HS-SY-II cells were fixed and stained at day 11. ASKA cells were fixed and stained at day 23. Staining was done by incubation with crystal violet solution (0.5 g Crystal Violet, 27 ml 37% Formaldehyde, 100 mL 10×PBS, 10 mL Methanol, 863 dH2O to 1 L) for 30 min followed by 3× washes with water and drying the plates for at least 24 h at room temperature. Subsequently plates were scanned on an Odyssey CLx Imaging system (FIG. 6).
(§4) Cells were seeded into 96-well ultra low cluster plate (Costar, #7007) in 200 μL complete media and treated at day 2 with DMSO, Staurosporin, or BRD9 degarder, Compound 1, at indicated doses (FIG. 7). Media and compounds were changed every 5 d and cell colonies were imaged at day 14.

[2] = system: non-synovial control cancer cell lines (293T, A549, G401); assay: Growth of non-synovial control cancer cell lines, Example 3; assay type: cell-based; details: FIGS. 5, 6, 7
Method: as §1, §2, §3, §4

[3] = system: synovial sarcoma cell lines (SYO1, HS-SY-II, and ASKA); assay: Crystal violet growth assay in synovial sarcoma cell lines, Example 4; assay type: cell-based; details: SYO1, HS-SY-II, ASKA; treated daily, day 14; FIG. 8
Method: (§5) Procedure: Cells were seeded into 6-well or 12-well plates and were treated daily with a BRD9 degrader (Compound 1), a bromo-domain BRD9 binder (Compound 2), E3 ligase binder (lenalidomide), DMSO, or staurosporin (positive control for cell killing), at indicated concentrations. The number of cells was optimized for each cell line. Growth media was refreshed every 5 days. By day 14, medium was removed, cells were washed with PBS, and stained using 500 μL of 0.005% (w/v) crystal violet solution in 25% (v/v) methanol for at least 1 hour at room temperature. Subsequently plates were scanned on an Odyssey CLx Imaging system.

[4] = system: non-synovial control cancer cell lines (RD, HCT116, and Calu6); assay: Crystal violet growth assay in non-synovial control cancer cell lines, Example 4; assay type: cell-based; details: treated daily, day 14, FIG. 9
Method: as §5

[5] = biological target: T1, BRD9 bromodomain (Flag-BRD9 P133-K239; Swiss Prot Q9H8M2) (Homo sapiens, UniProt Q9H8M2); assay: BRD9 Bromodomain TR-FRET Competition Binding Assay; details: competition with biotinylated BRD9 ligand; 90 minutes at room temperature
T1 construct: His-Flag-BRD9 (P133-K239); Swiss Prot Q9H8M2; His6 with TEV site (mgsshhhhhhenlyfq/) (N, cleaved yes); made in house
T1 sequence (Q9H8M2 133-239): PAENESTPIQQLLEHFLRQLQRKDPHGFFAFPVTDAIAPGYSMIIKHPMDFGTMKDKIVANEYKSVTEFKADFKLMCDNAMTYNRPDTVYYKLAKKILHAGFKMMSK
Method: Procedure: His-Flag-BRD9 (P133-K239; Swiss Prot Q9H8M2; SEQ ID NO:1 mgsshhhhhhenlyfq/gdykddddkgslevlfqg/[…] […]) was cloned, expressed, purified, and then treated with TEV protease. Cleaved His tag was removed by purification. The binding of a biotinylated small molecule ligand of BRD9 was assessed via the LANCE® TR-FRET platform (PerkinElmer), and the compounds were assayed for inhibitory activity against this interaction.
Results: A mixture of biotinylated-ligand and SureLight™ Allophycocyanin-Streptavidin (APC-SA, PerkinElmer AD0201) in 50 mM HEPES (pH 7.4), 50 mM NaCl, 1 mM TCEP (pH 7), 0.01% (v/v) Tween-20, 0.01% (w/v) bovine serum albumin was added to a white 384-well PerkinElmer Proxiplate Plus plate. DMSO or 3-fold serially diluted compounds were then added to the Proxiplate followed by addition of Flag-BRD9. After a 10-minute incubation at room temperature, Eu-W1024 anti-FLAG (PerkinElmer, AD0273) was added. The final reaction mixture that contained 3.75 nM biotinylated ligand, 3 nM Flag-BRD9, 7.5 nM SureLight™ Allophycocyanin-Streptavidin, and 0.2 nM Eu-W1024 anti-FLAG was incubated at room temperature for 90 minutes.
The plates were then read on a PerkinElmer Envision plate reader to determine the ratio of emission at 665 nm over 615 nm. […]

[6] = biological target: T2, Nanoluciferase-BRD9 fusion protein (3×FLAG-NLuc-BRD9) in SYO-1 cells (Homo sapiens, UniProt Q9H8M2); assay: SYO1 BRD9 NanoLuc Degradation Assay; assay type: cell-based; details: 6 hours; SYO-1 cells expressing 3×FLAG-NLuc-BRD9; top dose 1 μM; read-out: SYO1 BRD9-NanoLuc degradation IC50
T2 construct: expressed in transfected cells; host or cells: SYO-1
T2 sequence (Q9H8M2 1-597): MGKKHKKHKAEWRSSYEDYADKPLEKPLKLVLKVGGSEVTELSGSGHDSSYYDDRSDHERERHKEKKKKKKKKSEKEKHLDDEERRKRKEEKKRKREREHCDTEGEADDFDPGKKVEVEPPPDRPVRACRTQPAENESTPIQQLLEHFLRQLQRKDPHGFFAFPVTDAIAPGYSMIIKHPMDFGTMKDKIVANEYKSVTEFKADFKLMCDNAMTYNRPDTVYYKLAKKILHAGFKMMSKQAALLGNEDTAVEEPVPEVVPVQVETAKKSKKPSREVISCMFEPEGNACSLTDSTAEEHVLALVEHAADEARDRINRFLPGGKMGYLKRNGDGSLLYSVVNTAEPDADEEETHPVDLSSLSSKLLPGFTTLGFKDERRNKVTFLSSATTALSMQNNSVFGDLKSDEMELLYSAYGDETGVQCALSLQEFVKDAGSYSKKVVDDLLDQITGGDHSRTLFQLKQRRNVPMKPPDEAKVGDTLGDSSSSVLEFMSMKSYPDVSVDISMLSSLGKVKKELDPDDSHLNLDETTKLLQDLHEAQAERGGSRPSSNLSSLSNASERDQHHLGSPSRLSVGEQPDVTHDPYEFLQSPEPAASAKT
Outline: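 NanoLuc signal, read by Nano-Glo luminescence after 6 h compound exposure, gives % inhibition against DMSO-treated cells (high control) and cells given 1 μM of a standard BRD9 degrader (low control). Test compounds ran as 10-point 3-fold series, top 1 μM final, in duplicate on SYO-1 cells stably expressing 3×FLAG-NLuc-BRD9.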

| IC50 [5] | DC50 [6] | Structure (SMILES) | inhibition of the growth of the cells [1] | inhibition of the growth of the cells [2] | inhibition of the growth of the cells [3] | inhibition of the growth of the cells [4] |
| --- | --- | --- | --- | --- | --- | --- |
|  |  | COc1cc(-c2cn(C)c(=O)c3cnccc23)cc(OC)c1CN(C)C [Compound 2] | inhibition of the growth of the cells | does not result in inhibition of the growth | inhibition of the growth of the cells | did not result in inhibition of the growth |
| ≥ 10 nM | ≥ 100 nM | COc1cc(-c2cn(C)c(=O)c3cnc(N(C)CCOCCOCCNc4ccc5c(c4)C(=O)N(C4CCC(=O)NC4=O)C5=O)cc23)cc(OC)c1CN(C)C (stereo not shown) [Compound D22, 5-[10-(5-[4-[(dimethylamino)methyl]-3,5-dimethoxyphenyl]-7-methyl-8-oxo-2,7-naphthyridin-3-yl)-4,7-dioxa-1,10-diazaundecan-1-yl]-2-(2,6-dioxopiperidin-3-yl)isoindole-1,3-dione formic acid] |  |  |  |  |
| ≥ 10 nM | ≥ 10 nM | COc1cc(-c2cn(C)c(=O)c3cc(NCCOCCOCCNc4cccc5c4C(=O)N(C4CCC(=O)NC4=O)C5=O)ncc23)cc(OC)c1CN(C)C (stereo not shown) [Compound D24, 4-[[2-(2-[2-[(8-[4-[(dimethylamino)methyl]-3,5-dimethoxyphenyl]-6-methyl-5-oxo-2,6-naphthyridin-3-yl)amino]ethoxy]ethoxy)ethyl]amino]-2-(2,6-dioxopiperidin-3-yl)isoindole-1,3-dione] |  |  |  |  |
| ≥ 1000 nM | ≥ 100 nM | COc1cc(-c2cn(C)c(=O)c3cc(NCCCCCOc4cccc5c4C(=O)N(C4CCC(=O)NC4=O)C5=O)ncc23)c(OC)cc1CN(C)C (stereo not shown) [Compound D25, 4-((5-((8-(4-((dimethylamino)methyl)-2,5-dimethoxyphenyl)-6-methyl-5-oxo-5,6-dihydro-2,6-naphthyridin-3-yl)amino)pentyl)oxy)-2-(2,6-dioxopiperidin-3-yl)isoindoline-1,3-dione] |  |  |  |  |
| ≥ 10 nM | ≥ 10 nM | COc1cc(-c2cn(C)c(=O)c3cc(NCC(=O)NCCCCCOc4cccc5c4C(=O)N(C4CCC(=O)NC4=O)C5=O)ncc23)cc(OC)c1CN(C)C (stereo not shown) [Compound D26, 2-[(8-[4-[(dimethylamino)methyl]-3,5-dimethoxyphenyl]-6-methyl-5-oxo-2,6-naphthyridin-3-yl)amino]-N-(5-[[2-(2,6-dioxopiperidin-3-yl)-1,3-dioxoisoindol-4-yl]oxy]pentyl) acetamide] |  |  |  |  |
| < 10 nM | < 10 nM | COc1cc(-c2cn(C)c(=O)c3cnc(N(C)C)cc23)cc(OC)c1CN1CCC2(CC1)CN(C(=O)CCCCOc1cccc3c1C(=O)N(C1CCC(=O)NC1=O)C3=O)CCO2 (stereo not shown) [Compound D27, 4-((5-(9-(4-(6-(dimethylamino)-2-methyl-1-oxo-1,2-dihydro-2,7-naphthyridin-4-yl)-2,6-dimethoxybenzyl)-1-oxa-4,9-diazaspiro[5.5]undecan-4-yl)-5-oxopentyl)oxy)-2-(2,6-dioxopiperidin-3-yl)isoindoline-1,3-dione formic acid] |  |  |  |  |
| < 10 nM | < 10 nM | COc1cc(-c2cn(C)c(=O)c3cnc(N(C)C)cc23)cc(OC)c1CN1CC(S(=O)(=O)NCCN2CCN(c3ccc4c(c3)C(=O)N(C3CCC(=O)NC3=O)C4=O)CC2)C1 (stereo not shown) [Compound D28, 1-([4-[6-(dimethylamino)-2-methyl-1-oxo-2,7-naphthyridin-4-yl]-2,6-dimethoxyphenyl]methyl)-N-(2-[4-[2-(2,6-dioxopiperidin-3-yl)-1,3-dioxoisoindol-5-yl]piperazin-1-yl]ethyl)azetidine-3-sulfonamide] |  |  |  |  |
| < 10 nM | < 10 nM | CNc1cc2c(=O)n(C)cc(-c3cc(OC)c(CN4CCN(C(=O)COc5cccc6c5C(=O)N(C5CCC(=O)NC5=O)C6=O)CC4)c(OC)c3)c2cn1 (stereo not shown) [Compound D29, 4-[2-[4-([2,6-dimethoxy-4-[2-methyl-7-(methylamino)-1-oxo-2,6-naphthyridin-4-yl]phenyl]methyl)piperazin-1-yl]-2-oxoethoxy]-2-(2,6-dioxopiperidin-3-yl)isoindole-1,3-dione] |  |  |  |  |
| < 10 nM | < 10 nM | CNc1cc2c(=O)n(C)cc(-c3cc(OC)c(CN4CCC(CCN5CCN(c6ccc7c(c6)C(=O)N(C6CCC(=O)NC6=O)C7=O)CC5)CC4)c(OC)c3)c2cn1 (stereo not shown) [Compound D30, 5-(4-[2-[1-([2,6-dimethoxy-4-[2-methyl-7-(methylamino)-1-oxo-2,6-naphthyridin-4-yl]phenyl]methyl)piperidin-4-yl]ethyl]piperazin-1-yl)-2-(2,6-dioxopiperidin-3-yl)isoindole-1,3-dione formic acid] |  |  |  |  |
| ≥ 10 nM | ≥ 100 nM | COc1cc(-c2cn(C)c(=O)c3cnc(N(C)CCOCCOCCNc4cccc5c4C(=O)N(C4CCC(=O)NC4=O)C5=O)cc23)cc(OC)c1CN(C)C (stereo not shown) [Compound D31, 4-[10-(5-[4-[(dimethylamino)methyl]-3,5-dimethoxyphenyl]-7-methyl-8-oxo-2,7-naphthyridin-3-yl)-4,7-dioxa-1,10-diazaundecan-1-yl]-2-(2,6-dioxopiperidin-3-yl)isoindole-1,3-dione] |  |  |  |  |
